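These data come from cells grown in 96-well plates and exposed to compound for 48 hours at five concentrations. Here, GI50 denotes the concentration required for 50% inhibition of growth. TGI: concentration producing complete growth inhibition.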
Tests used:
Assay in all cases: DTP human tumour cell line panel, 48 h
MDA-MB-231 breast = test system: MDA-MB-231 breast
LOX IMVI melanoma = test system: LOX IMVI melanoma
786-0 renal = test system: 786-0 renal
A549 NSCLC = test system: A549 NSCLC
MCF7 breast = test system: MCF7 breast
NCI/ADR-RES ovarian = test system: NCI/ADR-RES ovarian
SF-268 CNS = test system: SF-268 CNS
SNB-19 CNS = test system: SNB-19 CNS
OVCAR-4 ovarian = test system: OVCAR-4 ovarian
HCT-15 colon = test system: HCT-15 colon
SN12C renal = test system: SN12C renal
M14 melanoma = test system: M14 melanoma
TK-10 renal = test system: TK-10 renal
U251 CNS = test system: U251 CNS
BT-549 breast = test system: BT-549 breast
K-562 leukemia = test system: K-562 leukemia
SK-MEL-5 melanoma = test system: SK-MEL-5 melanoma
MDA-MB-435 = test system: MDA-MB-435
T-47D breast = test system: T-47D breast
UACC-257 melanoma = test system: UACC-257 melanoma
A498 renal = test system: A498 renal
DU-145 prostate = test system: DU-145 prostate
SW-620 colon = test system: SW-620 colon
HL-60(TB) leukemia = test system: HL-60(TB) leukemia
HOP-62 NSCLC = test system: HOP-62 NSCLC
UACC-62 melanoma = test system: UACC-62 melanoma
SNB-75 CNS = test system: SNB-75 CNS
OVCAR-5 ovarian = test system: OVCAR-5 ovarian
SF-539 CNS = test system: SF-539 CNS
HCC-2998 colon = test system: HCC-2998 colon
NCI-H460 lung = test system: NCI-H460 lung
SK-MEL-28 melanoma = test system: SK-MEL-28 melanoma
ACHN renal = test system: ACHN renal
NCI-H226 lung = test system: NCI-H226 lung
HT29 colon = test system: HT29 colon
MALME-3M melanoma = test system: MALME-3M melanoma
RPMI-8226 leukemia = test system: RPMI-8226 leukemia
HOP-92 NSCLC = test system: HOP-92 NSCLC
SK-MEL-2 melanoma = test system: SK-MEL-2 melanoma
PC-3 prostate = test system: PC-3 prostate
OVCAR-8 ovarian = test system: OVCAR-8 ovarian
COLO 205 colon = test system: COLO 205 colon
HCT-116 colon = test system: HCT-116 colon
NCI-H23 lung = test system: NCI-H23 lung
MOLT-4 leukemia = test system: MOLT-4 leukemia
SR leukemia = test system: SR leukemia
IGROV1 ovarian = test system: IGROV1 ovarian
OVCAR-3 ovarian = test system: OVCAR-3 ovarian
CCRF-CEM leukemia = test system: CCRF-CEM leukemia
SK-OV-3 ovarian = test system: SK-OV-3 ovarian
KM12 colon = test system: KM12 colon
HS 578T breast = test system: HS 578T breast
SF-295 CNS = test system: SF-295 CNS
EKVX NSCLC = test system: EKVX NSCLC
RXF 393 renal = test system: RXF 393 renal
UO-31 renal = test system: UO-31 renal
NCI-H522 lung = test system: NCI-H522 lung

CC1=C(CCCNS(C)(=O)=O)C2=C(C)C3(CC3)[C@@](C)(O)C(=O)C2=C1
GI50 (MDA-MB-231 breast): 1630 nM
TGI (MDA-MB-231 breast): 6500 nM
GI50 (LOX IMVI melanoma): 1800 nM
TGI (LOX IMVI melanoma): 6340 nM
GI50 (786-0 renal): 816 nM
TGI (786-0 renal): 6320 nM
GI50 (A549 NSCLC): 1640 nM
TGI (A549 NSCLC): 24800 nM
GI50 (MCF7 breast): 2010 nM
TGI (MCF7 breast): > 100000 nM
GI50 (NCI/ADR-RES ovarian): 1380 nM
TGI (NCI/ADR-RES ovarian): 18100 nM
GI50 (SF-268 CNS): 373 nM
TGI (SF-268 CNS): 14200 nM
GI50 (SNB-19 CNS): 1930 nM
TGI (SNB-19 CNS): > 100000 nM
GI50 (OVCAR-4 ovarian): 900 nM
TGI (OVCAR-4 ovarian): 5320 nM
GI50 (HCT-15 colon): 1230 nM
TGI (HCT-15 colon): > 100000 nM
GI50 (SN12C renal): 1780 nM
TGI (SN12C renal): > 100000 nM
GI50 (M14 melanoma): 807 nM
TGI (M14 melanoma): 2750 nM
GI50 (TK-10 renal): 2610 nM
TGI (TK-10 renal): 8520 nM
GI50 (U251 CNS): 2320 nM
TGI (U251 CNS): > 100000 nM
GI50 (BT-549 breast): 749 nM
TGI (BT-549 breast): 3890 nM
GI50 (K-562 leukemia): 61800 nM
TGI (K-562 leukemia): > 100000 nM
GI50 (SK-MEL-5 melanoma): 492 nM
TGI (SK-MEL-5 melanoma): 1980 nM
GI50 (MDA-MB-435): 1990 nM
TGI (MDA-MB-435): 5410 nM
GI50 (T-47D breast): 563 nM
TGI (T-47D breast): 6020 nM
GI50 (UACC-257 melanoma): 1780 nM
TGI (UACC-257 melanoma): 4410 nM
GI50 (A498 renal): 1050 nM
TGI (A498 renal): 2770 nM
GI50 (DU-145 prostate): 369 nM
TGI (DU-145 prostate): 17400 nM
GI50 (SW-620 colon): 55500 nM
TGI (SW-620 colon): > 100000 nM
GI50 (HL-60(TB) leukemia): 1980 nM
TGI (HL-60(TB) leukemia): > 24000 nM
GI50 (HOP-62 NSCLC): 421 nM
TGI (HOP-62 NSCLC): 2330 nM
GI50 (UACC-62 melanoma): 1470 nM
TGI (UACC-62 melanoma): 3450 nM
GI50 (SNB-75 CNS): 342 nM
TGI (SNB-75 CNS): 1670 nM
GI50 (OVCAR-5 ovarian): 654 nM
TGI (OVCAR-5 ovarian): 7620 nM
GI50 (SF-539 CNS): 969 nM
TGI (SF-539 CNS): 3260 nM
GI50 (HCC-2998 colon): 1520 nM
TGI (HCC-2998 colon): 4510 nM
GI50 (NCI-H460 lung): 266 nM
TGI (NCI-H460 lung): 812 nM
GI50 (SK-MEL-28 melanoma): 1940 nM
TGI (SK-MEL-28 melanoma): 4750 nM
GI50 (ACHN renal): 2140 nM
TGI (ACHN renal): 7580 nM
GI50 (NCI-H226 lung): 1040 nM
TGI (NCI-H226 lung): 5790 nM
GI50 (HT29 colon): 1870 nM
TGI (HT29 colon): > 100000 nM
GI50 (MALME-3M melanoma): 776 nM
TGI (MALME-3M melanoma): 2620 nM
GI50 (RPMI-8226 leukemia): > 64500 nM
TGI (RPMI-8226 leukemia): > 100000 nM
GI50 (HOP-92 NSCLC): 303 nM
TGI (HOP-92 NSCLC): 1410 nM
GI50 (SK-MEL-2 melanoma): 1670 nM
TGI (SK-MEL-2 melanoma): 4130 nM
GI50 (PC-3 prostate): 1680 nM
TGI (PC-3 prostate): > 100000 nM
GI50 (OVCAR-8 ovarian): 518 nM
TGI (OVCAR-8 ovarian): 5360 nM
GI50 (COLO 205 colon): 853 nM
TGI (COLO 205 colon): 2690 nM
GI50 (HCT-116 colon): 863 nM
TGI (HCT-116 colon): > 100000 nM
GI50 (NCI-H23 lung): 269 nM
TGI (NCI-H23 lung): 1830 nM
GI50 (MOLT-4 leukemia): 37200 nM
TGI (MOLT-4 leukemia): > 100000 nM
GI50 (SR leukemia): 36200 nM
TGI (SR leukemia): > 100000 nM
GI50 (IGROV1 ovarian): 259 nM
TGI (IGROV1 ovarian): 1150 nM
GI50 (OVCAR-3 ovarian): 890 nM
TGI (OVCAR-3 ovarian): 4700 nM
GI50 (CCRF-CEM leukemia): 44100 nM
TGI (CCRF-CEM leukemia): > 100000 nM
GI50 (SK-OV-3 ovarian): 304 nM
TGI (SK-OV-3 ovarian): 1110 nM
GI50 (KM12 colon): 3990 nM
TGI (KM12 colon): > 100000 nM
GI50 (HS 578T breast): 2730 nM
TGI (HS 578T breast): 11100 nM
GI50 (SF-295 CNS): 634 nM
TGI (SF-295 CNS): 19900 nM
GI50 (EKVX NSCLC): 2310 nM
TGI (EKVX NSCLC): 7720 nM
GI50 (RXF 393 renal): 199 nM
TGI (RXF 393 renal): 419 nM
GI50 (UO-31 renal): 500 nM
TGI (UO-31 renal): 2300 nM
GI50 (NCI-H522 lung): 2090 nM
TGI (NCI-H522 lung): 7700 nM
